# Experimental data as given in publication PMC8467595, “Protective Effects of Linearthin and Other Chalcone Derivatives from Aspalathus linearis (Rooibos) against UVB Induced Oxidative Stress and Toxicity in Human Skin Cells” (Plants, 2021).
# Where two headings read alike, the source gives them in different places.
# Assays:
# [1] = test system: SK-MEL-1 cells; assay: ATP bioluminescent assay (Cell Titer-Glo); format: cell-based, human; conditions: SK-MEL-1, 10 µg/mL, 24-h pre-treatment
# Method: For experiments, before exposure to UVB, the cells were conditioned with various concentrations of total extract and isolated compounds thereof for 4 or 24 h. These periods were selected based on the half-life of the compounds as well as previous studies [22, 32]. Exposure to UVB was done according to a previous study. Cells were seeded (3 × 10^4) in 96-well tissue culture microtitre plates. Cell culture media was aspirated and the cells were overlayed with PBS. The cells were exposed to UVB light (80 mJ/cm^2) without the plastic lid. A UVIlink UV Crosslinker (UVitek Ltd., Aberdeen, UK) was fitted with six 8 Watt UV tubes giving a wavelength of 302 nm (Vilber Lourmat, Collégien, France) [22]. Control plates were not exposed to UVB light. The ATP bioluminescent assay was used to quantify cellular ATP. The Cell Titer-Glo® assay (Promega, Madison, WI, USA) was carried out according to the manufacturer’s instructions. Cells were seeded in a white microtitre plate (20,000 cells per well) to which the ATP Cell Titer-Glo® Reagent was added (50 μL). The plate was incubated for 30 min at room temperature (RT) in the dark. Luminescence was measured on a Multiskan Spectrum plate reader (Thermo Fisher Scientific, Waltham, MA, USA). Luminescence is proportional to ATP levels and expressed as relative light units (RLU).
# [2] = test system: HaCaT cells; assay: MTT cytotoxicity assay, pre-treatment 4 or 24 h with or without UVB irradiation; format: cell-based; conditions: Homo sapiens, read-out: IC50 (50% inhibition of viable cell number, MTT)
# Method: (§1) The human epidermal keratinocytes (HaCaT) and melanoma (SK-MEL-1) cells used in this study were cultured in Roswell Park Memorial Institute (RPMI) 1640 media supplemented with antibiotics (100 U/mL streptomycin, 100 U/mL penicillin) and fetal calf serum (FCS, 10%). Cells were maintained at 37 °C in a humidified atmosphere of 5% CO2.
# (§2) For experiments, before exposure to UVB, the cells were conditioned with various concentrations of total extract and isolated compounds thereof for 4 or 24 h. These periods were selected based on the half-life of the compounds as well as previous studies. Exposure to UVB was done according to a previous study. Cells were seeded (3 × 10^4) in 96-well tissue culture microtitre plates. Cell culture media was aspirated and the cells were overlayed with PBS. The cells were exposed to UVB light (80 mJ/cm^2) without the plastic lid. A UVIlink UV Crosslinker (UVitek Ltd., Aberdeen, UK) was fitted with six 8 Watt UV tubes giving a wavelength of 302 nm (Vilber Lourmat, Collégien, France). Control plates were not exposed to UVB light.
# (§3) The MTT assay has been extensively used for determining the cytoprotective effects of several phytochemicals. To monitor cell viability as a measure of metabolic activity the MTT assay was performed. The conditioned HaCat and SK-MEL-1 cells (15,000 cells per well in 96-well plates) were incubated for 2 h using 100 μL MTT solution (5 mg/mL) after PBS washing. The MTT formazan crystals were then solubilised by DMSO resuspension. The optical density of the formazan product was read at 570 nm wavelength with a reference wavelength of 690 nm. The half-maximal inhibitory concentration (IC50) was determined.
# [3] = test system: SK-MEL-1 cells; assay: as above; format: cell-based; conditions: Homo sapiens, read-out: IC50 (50% inhibition of viable cell number, MTT)
# Method: as §1, §2, §3
# [4] = test system: HaCaT cells; assay: ATP bioluminescent assay (Cell Titer-Glo); format: cell-based, human; conditions: for ATP vs control cell levels: 24 h pre-exposure, UVB irradiated cells
# Method: as §2
# The ATP bioluminescent assay was used to quantify cellular ATP. The Cell Titer-Glo® assay (Promega, Madison, WI, USA) was carried out according to the manufacturer’s instructions. Cells were seeded in a white microtitre plate (20,000 cells per well) to which the ATP Cell Titer-Glo® Reagent was added (50 μL). The plate was incubated for 30 min at room temperature (RT) in the dark. Luminescence was measured on a Multiskan Spectrum plate reader (Thermo Fisher Scientific, Waltham, MA, USA). Luminescence is proportional to ATP levels and expressed as relative light units (RLU).
# [5] = test system: HaCaT cells; assay: Caspase 3/7 activation (ApoTox-Glo Triplex Assay); format: cell-based, human; conditions: UVB irradiated cells
# Method: as §2
# (§4) The ApoTox-Glo™ Triplex Assay (Promega) was used to assess cytotoxicity and apoptosis events in the same cell-based assay well according to the manufacturer’s instructions with no deviation from standard protocol. Both luminescence and fluorescence were detected using a plate reader.
# [6] = test system: SK-MEL-1 cells; assay: Caspase 3/7 activation (ApoTox-Glo Triplex Assay); format: cell-based, human; conditions: SK-MEL-1, UVB irradiated cells
# Method: as §2, §4
# [7] = test system: HaCaT cells; assay: TBARS lipid peroxidation (MDA); format: cell-based, human; conditions: for MDA levels (lipid peroxidation): HaCaT
# Method: as §2
# (§5) The thiobarbituric acid reactive substances (TBARS) was used to quantify the levels of melondialdehyde (a marker of lipid peroxidation) in the supernatant of UVB irradiated and non-irradiated cells. The experiments were conducted as previously described. The optical density was measured at 532 nm with a reference wavelength of 600 nm using a plate reader. The mean optical density of five samples per treatment was calculated and divided by the absorption coefficient (156 mM^−1). Results were expressed as MDA concentration (μM). Reduced glutathione (GSH) was quantified using an in-house protocol with minor modifications. After the addition of reagents, the cells were lysed to allow quantification of GSH colourimetrically using a plate reader.
# [8] = test system: SK-MEL-1 cells; assay: TBARS lipid peroxidation (MDA); format: cell-based, human; conditions: SK-MEL-1, 24-h pre-treatment, after UVB exposure
# Method: For experiments, before exposure to UVB, the cells were conditioned with various concentrations of total extract and isolated compounds thereof for 4 or 24 h. […] Exposure to UVB was done according to a previous study. Cells were seeded (3 × 10^4) in 96-well tissue culture microtitre plates. Cell culture media was aspirated and the cells were overlayed with PBS. The cells were exposed to UVB light (80 mJ/cm^2) without the plastic lid. A UVIlink UV Crosslinker (UVitek Ltd., Aberdeen, UK) was fitted with six 8 Watt UV tubes giving a wavelength of 302 nm (Vilber Lourmat, Collégien, France) [22]. Control plates were not exposed to UVB light. The thiobarbituric acid reactive substances (TBARS) was used to quantify the levels of melondialdehyde (a marker of lipid peroxidation) in the supernatant of UVB irradiated and non-irradiated cells. The experiments were conducted as previously described [45]. The optical density was measured at 532 nm with a reference wavelength of 600 nm using a plate reader. The mean optical density of five samples per treatment was calculated and divided by the absorption coefficient (156 mM^−1). Results were expressed as MDA concentration (μM).
# [9] = test system: HaCaT cells; assay: Reduced glutathione (GSH) quantification; format: cell-based, human
# Method: as §2, §5
# [10] = test system: SK-MEL-1 cells; assay: Reduced glutathione (GSH) quantification; format: cell-based, human; conditions: SK-MEL-1 pre-treated cells
# Method: as §2, §5
# [11] = light or radiation study, UVB irradiation after pre-treatment 4 h
# [12] = light or radiation study, UVB irradiation after pre-treatment 24 h
# [13] = SK-MEL-1, SK-MEL-1, No UV, pre-treatment 4 h
# [14] = SK-MEL-1, SK-MEL-1, No UV, pre-treatment 24 h
# [15] = SK-MEL-1, light or radiation study, SK-MEL-1, UVB irradiation after pre-treatment 4 h
# [16] = SK-MEL-1, light or radiation study, SK-MEL-1, UVB irradiation after pre-treatment 24 h
Structure (SMILES),ATP in UVB irradiated vs non-UVB irradiated cells [1],"IC50 ([2]; No UV, pre-treatment 4 h)","IC50 ([2]; No UV, pre-treatment 24 h)","IC50 [2, 11]","IC50 [2, 12]","IC50 [3, 13]","IC50 [3, 14]","IC50 [3, 15]","IC50 [3, 16]",ATP in UVB irradiated vs non-irradiated cells ([4]; 100 µg/mL),ATP vs control cell levels [4],caspase 3/7 activation [5],caspase 3/7 activation [6],"MDA levels (lipid peroxidation) ([7]; 4-h pre-treatment, UVB exposed, vs cells with no isolate intervention)","MDA formation by UVB vs cells not exposed to UVB ([7]; lowest concentration, 4-h pre-treatment, cell line not given)",MDA levels (lipid peroxidation) [8],"MDA levels (lipid peroxidation) ([7]; 24-h pre-treatment, after UVB exposure)","GSH content ([9]; pre-treatment 4 h, UVB exposed and non-exposed cells)",GSH levels ([9]; pre-treatment 24 h),"GSH levels, resistance to UVB irradiation [10]"
"O=C(CCc1ccc(O)cc1)c1c(O)cc(O)c(C2OC(CO)C(O)C(O)C2O)c1O (stereo not drawn) [Compound 3, nothofagin]",significantly increase ATP to above levels observed in non-UVB irradiated cells,144 µg/mL,123 µg/mL,196 µg/mL,164 µg/mL,208 µg/mL,210 µg/mL,119 µg/mL,123 µg/mL,increase ATP in UVB irradiated cells to above levels observed in non-irradiated cells,maintain ATP above control cell levels,inhibited the activation of executioner caspases in a dose-dependent manner,inhibited the activation of executioner caspases in a dose-dependent manner,–,–,–,–,–,–,–
"O=C(CCc1ccc(O)c(O)c1)c1c(O)cc(O)c2c1OC1(C2)O[C@@H](CO)[C@H](O)[C@H]1O (relative stereo) [Compound 1, linearthin]",–,117 µg/mL,105 µg/mL,266 µg/mL,282 µg/mL,330 µg/mL,124 µg/mL,248 µg/mL,143 µg/mL,–,maintain ATP above control cell levels,inhibited the activation of executioner caspases in a dose-dependent manner,inhibited the activation of executioner caspases in a dose-dependent manner,only the lowest concentration reduced MDA significantly,circumvent MDA formation by UVB to below levels observed in cells not exposed to UVB,–,–,–,–,–
"O=C(CCc1ccc(O)c(O)c1)c1c(O)cc(O)c(C2OC(CO)C(O)C(O)C2O)c1O (stereo not drawn) [Compound 2, aspalathin]",significantly increase ATP to above levels observed in non-UVB irradiated cells,209 µg/mL,122 µg/mL,399 µg/mL,145 µg/mL,93.6 µg/mL,66.4 µg/mL,72.2 µg/mL,70 µg/mL,–,–,inhibited the activation of executioner caspases in a dose-dependent manner,inhibited the activation of executioner caspases in a dose-dependent manner,–,–,significant (p < 0.05) reduction in MDA levels at all tested concentrations,significant (p < 0.05) reduction in MDA levels at all tested concentrations,only active at the lowest concentration tested,only active at the lowest concentration tested,improved GSH levels
